Publication PMC6499206, “Quantification of Volatile Metabolites Derived From Garlic (Allium sativum) in Human Urine” (Frontiers in Nutrition, 2019)

Assay: Quantification of garlic-derived metabolites in human urine after ingestion of 3 g raw garlic (SIDA, SAFE, HRGC-MS / HRGC-GC-MS)
Format: in vivo
Conditions: human urine; also refs 5, 16
Text: Human urine samples were obtained from 18 volunteers (age 22–38 years, mean 27 years; 11 females, 7 males); thereby, one volunteer conducted the whole experimental series twice. At the time of examination, volunteers reported no known illness that might have potentially influenced the metabolism or the excretion of urine. The test persons were instructed to avoid foods that were rich in sulfur-containing substances at the testing day as well as 2 days preceding the testing day, namely garlic, onion, wild garlic, chives, cabbage, and leek, and were only allowed to consume the garlic sample provided in the course of the experiments. Additionally, subjects were asked to keep records of the food (including food supplements) and beverages they consumed during these 3 testing days. Generally, the overall panelists' requirements were in accordance with our previous studies ([5], [16]).
On the sampling day, the outer garlic cloves of a whole garlic bulb were peeled and cut into ~3 mm cubes by using a garlic cutter (Genius GmbH, Limburg/Lahn, Germany). Subsequently these cubes were thoroughly mixed and aliquoted into 3 g portions. Three to four test persons conducted the experiment at the same day. Each test person was asked to ingest a garlic portion of 3 g. In total, eight consecutive urine samples were provided by each test person, comprising one whole urine set. The samples were collected in sterile brown glass bottles, with sampling times as follows: one sample was provided directly prior to garlic consumption. The series of the second to eighth sample was then obtained at about 0.5, 1, 2, 4, 6, 8, and 24 h after garlic consumption, respectively. Between the first urine sample (prior to garlic consumption) and the seventh urine sample (8 h after garlic consumption) test persons only spent urine at the specific time points mentioned before. Another sample was provided at the next morning (24 h after garlic consumption). Between the samples provided 8 and 24 h after garlic consumption no urine was collected. All samples were immediately placed into a −80°C freezer and were kept frozen until further analysis.
The samples of each set were termed according to their sampling time. The following list provides the time intervals that are related to the respective sample name: • - pre: before garlic consumption • - 0.5 h post: 0.4–0.8 h after garlic consumption • - 1 h post: 0.9–1.3 h after garlic consumption • - 2 h post: 1.8 h−2.2 h after garlic consumption • - 4 h post: 3.8–4.4 h after garlic consumption • - 6 h post: 5.8–6.4 h after garlic consumption • - 8 h post: 7.8–8.4 h after garlic consumption • - 24 h post: 23.8–25.6 h after garlic consumption
A creatinine kit (Labor+Technik Eberhard Lehmann GmbH, Berlin, Germany) was used to determine the creatinine content in each urine sample. The determination principle of this kit is based on the reaction of creatinine with picric acid under basic conditions (Jaffé reaction). The formed complex was detected photometrically at a wavelength of 492 nm.
For quantification purposes, the deuterated standards ^2H3-AMS, ^2H3-AMSO, and ^2H3-AMSO2 were added to the sample and stirred for 10 min. Subsequently, DCM was added in a ratio of 1:2 (DCM/human urine; v/v) and this solution was stirred for further 30 min at room temperature. To isolate the volatile fraction from the urine samples we then applied SAFE-distillation ([17]), thereby distilling the respective samples at 50°C. After completion of the distillation process, 10 mL of DCM were applied in each case to rinse the SAFE apparatus and to ensure complete transition of the volatile compounds. This process was repeated with another 10 mL of DCM. After thawing, the obtained aqueous distillate phase was extracted three times with 25 mL DCM. The organic phases were combined, dried over anhydrous Na2SO4 and concentrated to a total volume of 100 μL by means of Vigreux distillation and subsequent micro-distillation at 50°C. […]

C=CCS(=O)(=O)CC=C [diallyl sulfone]
presence as metabolite in human urine after garlic consumption: exclude the presence
